PubChem BioAssay (NCI)
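Results reflect a 48-hour exposure of cells in 96-well plates to compound at five concentrations. TGI is the concentration that stops growth completely.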

How the values were obtained:
Experiment in all cases: DTP human tumour cell line panel, 48 h
MDA-N = tested on: MDA-N
786-0 renal = tested on: 786-0 renal
SF-539 CNS = tested on: SF-539 CNS
NCI-H460 lung = tested on: NCI-H460 lung
NCI-H522 lung = tested on: NCI-H522 lung
CAKI-1 renal = tested on: CAKI-1 renal
IGROV1 ovarian = tested on: IGROV1 ovarian
HS 578T breast = tested on: HS 578T breast
SK-MEL-28 melanoma = tested on: SK-MEL-28 melanoma
SK-MEL-2 melanoma = tested on: SK-MEL-2 melanoma
KM12 colon = tested on: KM12 colon
NCI-H23 lung = tested on: NCI-H23 lung
M14 melanoma = tested on: M14 melanoma
T-47D breast = tested on: T-47D breast
MOLT-4 leukemia = tested on: MOLT-4 leukemia
HL-60(TB) leukemia = tested on: HL-60(TB) leukemia
LOX IMVI melanoma = tested on: LOX IMVI melanoma
A549 NSCLC = tested on: A549 NSCLC
MCF7 breast = tested on: MCF7 breast
MALME-3M melanoma = tested on: MALME-3M melanoma
HOP-92 NSCLC = tested on: HOP-92 NSCLC
CCRF-CEM leukemia = tested on: CCRF-CEM leukemia
BT-549 breast = tested on: BT-549 breast
SF-268 CNS = tested on: SF-268 CNS
MDA-MB-231 breast = tested on: MDA-MB-231 breast
SF-295 CNS = tested on: SF-295 CNS
UO-31 renal = tested on: UO-31 renal
DU-145 prostate = tested on: DU-145 prostate
SW-620 colon = tested on: SW-620 colon
UACC-257 melanoma = tested on: UACC-257 melanoma
K-562 leukemia = tested on: K-562 leukemia
TK-10 renal = tested on: TK-10 renal
SNB-19 CNS = tested on: SNB-19 CNS
HCC-2998 colon = tested on: HCC-2998 colon
OVCAR-8 ovarian = tested on: OVCAR-8 ovarian
U251 CNS = tested on: U251 CNS
HT29 colon = tested on: HT29 colon
UACC-62 melanoma = tested on: UACC-62 melanoma
OVCAR-5 ovarian = tested on: OVCAR-5 ovarian
HCT-15 colon = tested on: HCT-15 colon
RXF 393 renal = tested on: RXF 393 renal
SK-MEL-5 melanoma = tested on: SK-MEL-5 melanoma
COLO 205 colon = tested on: COLO 205 colon
OVCAR-3 ovarian = tested on: OVCAR-3 ovarian
SR leukemia = tested on: SR leukemia
A498 renal = tested on: A498 renal
SK-OV-3 ovarian = tested on: SK-OV-3 ovarian
MDA-MB-435 = tested on: MDA-MB-435
NCI/ADR-RES ovarian = tested on: NCI/ADR-RES ovarian
RPMI-8226 leukemia = tested on: RPMI-8226 leukemia
HCT-116 colon = tested on: HCT-116 colon
OVCAR-4 ovarian = tested on: OVCAR-4 ovarian
SN12C renal = tested on: SN12C renal
EKVX NSCLC = tested on: EKVX NSCLC
PC-3 prostate = tested on: PC-3 prostate
HOP-62 NSCLC = tested on: HOP-62 NSCLC
ACHN renal = tested on: ACHN renal
NCI-H226 lung = tested on: NCI-H226 lung
SNB-75 CNS = tested on: SNB-75 CNS

Measured: TGI

COc1ccc(C2(C3c4cc(OC)c(OC)cc4CCN3C)SCCCS2)cc1O (stereo not given)
not listed: ACHN renal | NCI-H226 lung | SNB-75 CNS
> 100 µM: all other assays above

Cc1c(F)c(N)c2c(=O)cc(-c3ccc(NC(=O)C(N)CCCN=C(N)N)c(F)c3)oc2c1F (stereo not given)
0.758 µM: NCI-H226 lung
> 56 µM: SF-295 CNS
> 83.6 µM: MDA-MB-435
0.281 µM: A498 renal
63.6 µM: SK-MEL-28 melanoma
> 78.9 µM: DU-145 prostate
> 82.8 µM: OVCAR-8 ovarian
> 50 µM: OVCAR-5 ovarian
99.6 µM: HOP-62 NSCLC
> 55.8 µM: UO-31 renal
71.9 µM: HS 578T breast
> 68.2 µM: SK-OV-3 ovarian
97.1 µM: M14 melanoma
97.7 µM: NCI-H522 lung
40.7 µM: SF-539 CNS | OVCAR-4 ovarian
7.41 µM: UACC-257 melanoma
59.3 µM: RXF 393 renal
60 µM: SK-MEL-2 melanoma
> 59.6 µM: MDA-MB-231 breast
99.7 µM: KM12 colon
48.5 µM: ACHN renal
> 55.3 µM: U251 CNS
30.5 µM: TK-10 renal
51.5 µM: BT-549 breast
3.32 µM: CAKI-1 renal
62.5 µM: MALME-3M melanoma
> 73.8 µM: NCI-H23 lung
> 76.6 µM: PC-3 prostate
76.8 µM: SK-MEL-5 melanoma
10.8 µM: IGROV1 ovarian
45.2 µM: SN12C renal
> 64.9 µM: NCI-H460 lung
not listed: MCF7 breast | UACC-62 melanoma | OVCAR-3 ovarian | SNB-75 CNS
> 100 µM: all other assays above

O=C1O[C@]2(c3ccccc3)C(c3ccccc3)=C[C@]2(C(=O)c2ccccc2)C1=O
98.6 µM: NCI-H226 lung
30.7 µM: SR leukemia
73.5 µM: TK-10 renal
45.1 µM: SW-620 colon
54.3 µM: K-562 leukemia
48.5 µM: NCI-H522 lung
85.7 µM: 786-0 renal
74.6 µM: SK-MEL-2 melanoma
50.8 µM: SF-539 CNS
79 µM: LOX IMVI melanoma
64.9 µM: RPMI-8226 leukemia
64.8 µM: HOP-92 NSCLC
71.6 µM: NCI-H460 lung
39.2 µM: HCC-2998 colon
81.8 µM: MCF7 breast
5.13 µM: RXF 393 renal
22.3 µM: MOLT-4 leukemia
61.1 µM: UO-31 renal
99.1 µM: MDA-MB-231 breast
22.4 µM: HL-60(TB) leukemia
93.5 µM: U251 CNS
not listed: CCRF-CEM leukemia
> 100 µM: all other assays above

CCOC(=O)C(C)c1nc2cc(N3CCN(C)CC3)c(F)cc2[nH]c1=O (stereo not given)
not listed: LOX IMVI melanoma | TK-10 renal | HCC-2998 colon
> 100 µM: all other assays above

COc1ccc(/C=C2\CN(C)Cc3c2[nH]c(=O)c(C#N)c3-c2ccc(OC)cc2)cc1
71.6 µM: RPMI-8226 leukemia
31.8 µM: HL-60(TB) leukemia
51.1 µM: 786-0 renal
63.3 µM: RXF 393 renal
not listed: SF-539 CNS | HCC-2998 colon | SR leukemia | A498 renal | SNB-75 CNS
> 100 µM: all other assays above

Cc1ccc2nc(Cl)c(/C=N/N3C(=O)/C(=C/c4ccc(N(C)C)cc4)N=C3c3ccccc3)cc2c1
52.4 µM: SF-539 CNS
44.9 µM: OVCAR-3 ovarian
68.5 µM: MOLT-4 leukemia
98.7 µM: SK-MEL-2 melanoma
65.8 µM: MDA-MB-435
65.3 µM: RPMI-8226 leukemia
92.6 µM: MDA-N
not listed: NCI-H522 lung | NCI-H23 lung | MALME-3M melanoma | RXF 393 renal | NCI-H226 lung
> 100 µM: all other assays above

CCOC(=O)C(NCc1cccc(C(F)(F)F)c1)(NC(=O)c1ccccc1)C(F)(F)F (stereo not given)
68.7 µM: UACC-257 melanoma
94.6 µM: RPMI-8226 leukemia
66.9 µM: IGROV1 ovarian
79.4 µM: UO-31 renal
29.9 µM: MDA-MB-231 breast | COLO 205 colon
41.2 µM: CAKI-1 renal
79.5 µM: 786-0 renal | ACHN renal
50.4 µM: NCI-H522 lung
72.1 µM: RXF 393 renal
83.9 µM: EKVX NSCLC
48.3 µM: LOX IMVI melanoma
69 µM: MALME-3M melanoma
93.3 µM: SNB-75 CNS
56.1 µM: BT-549 breast
63.6 µM: SK-MEL-28 melanoma
79 µM: MDA-MB-435
70.8 µM: NCI-H23 lung
48.5 µM: HT29 colon
64.7 µM: HOP-92 NSCLC
30.9 µM: UACC-62 melanoma
84.5 µM: NCI/ADR-RES ovarian
82 µM: OVCAR-3 ovarian
80 µM: T-47D breast
not listed: NCI-H460 lung | A498 renal
> 100 µM: all other assays above
